According to PubChem BioAssay AID1552 (Sanford-Burnham Center for Chemical Genomics, 2009):
Calls of active or inactive are those of the source. The rule behind the calls is not given here.

target: Ubiquitin-conjugating enzyme E2 N (Homo sapiens) (UniProt P61088); assay: NMR detection of UBE2N ligand binding – biophysical, purified protein (AID 1552); details: NMR binding to purified UBE2N
Sequence (P61088 whole entry, looked up): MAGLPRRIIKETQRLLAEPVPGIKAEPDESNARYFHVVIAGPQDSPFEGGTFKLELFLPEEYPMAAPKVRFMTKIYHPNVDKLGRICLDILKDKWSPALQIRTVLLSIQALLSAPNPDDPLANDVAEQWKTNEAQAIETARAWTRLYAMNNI

| SMILES | Kd |
| --- | --- |
| C/C=C/COc1nc2c(c(=O)n(C)c(=O)n2C)n1C | > 4 mM (inactive) |
| O=C1NC(=S)N/C1=C\c1cccc([N+](=O)[O-])c1 | > 4 mM (inactive) |
| COc1ccc(S(=O)(=O)N2CCOCC2)cc1C(C)C | > 4 mM (inactive) |
| O=C1CCN(c2ccccc2)N1 | > 4 mM (inactive) |
| Fc1ccc(F)c(CN2CCN(c3ncccn3)CC2)c1 | > 4 mM (inactive) |
| COC(=O)C1CCc2ccccc2N1 (stereo not given) | > 4 mM (inactive) |
| O=C(O)CNC(=O)c1ccc([N+](=O)[O-])cc1 | > 4 mM (inactive) |
| Cc1cc(C(=O)c2c(C)nn(C)c2Cl)n(C)n1 | > 4 mM (inactive) |
| O=C(O)c1[nH]nc2c1COc1ccccc1-2 | > 4 mM (inactive) |
| Cc1occc1C(=O)Nc1nnc(C2CCCCC2)s1 | > 4 mM (inactive) |
| COC(=O)Nc1nnc(-c2ccncc2)s1 | > 4 mM (inactive) |
| C/C=C(\C)c1nnc(NC(=O)C(C)C)s1 | > 4 mM (inactive) |
| NC(=O)CS(=O)(=O)c1ccc(Cl)cc1 | > 4 mM (inactive) |
| Cc1nc(-c2cc(C(=O)O)no2)cs1 | > 4 mM (inactive) |
| NC(=O)CSc1ccc(-c2ccco2)nn1 | > 4 mM (inactive) |
| CCSc1nnc2[nH]c(=O)cc(C)n12 | > 4 mM (inactive) |
| Cc1cc(=O)[nH]c(NCc2cccnc2)n1 | > 4 mM (inactive) |
| CC1(C)Cn2c(nnc2-c2ccccc2)S1 | > 4 mM (inactive) |
| CS(=O)(=O)c1ccccc1C(=O)Nc1nccs1 | > 4 mM (inactive) |
| c1cc2n(c1)CCNC2c1ccncc1 (stereo not given) | > 4 mM (inactive) |
| Cc1nn(C)c(C)c1NC(=S)NC1CCCC1 | > 4 mM (inactive) |
| O=C(O)C1CCCCN1Cc1ccccc1 (stereo not given) | > 4 mM (inactive) |
| CN1CCN(C2CCN(Cc3ccccc3)CC2)CC1 | > 4 mM (inactive) |

| SMILES | Kd |
| --- | --- |
| Cc1c(N=CN2CCOCC2)c(=O)n(C)c(=O)n1C | > 4 mM (inactive) |
| COc1cccc(C(=O)Nc2c(C)n[nH]c2C)c1 | > 4 mM (inactive) |
| O=C(O)Cc1n[nH]c(=O)c2ccccc12 | > 4 mM (inactive) |
| Cc1nc(NC2=NCCC(=O)N2)nc2ccccc12 | > 4 mM (inactive) |
| COc1ccc(C)cc1S(N)(=O)=O | > 4 mM (inactive) |
| N#Cc1ccccc1CSc1ccccn1 | > 4 mM (inactive) |
| COc1cccc(-c2nn(-c3ccccc3)cc2CO)c1 | > 4 mM (inactive) |
| CC(=O)O[C@@H]1CC2C(C)(C)[C@H](O)C=C[C@]2(C)C2CC[C@]3(C)C(=CC(=O)O[C@H]3c3ccoc3)[C@@]21C (stereo not given in full) | > 4 mM (inactive) |
| CN1CCN(c2ccc(CN)cc2)CC1 | > 4 mM (inactive) |
| C[C@H]1[C@H](C)CC[C@]2(CO)CC[C@]3(C)C(=CCC4[C@@]5(C)CC[C@H](O)C(C)(C)C5CC[C@]43C)[C@H]12 (stereo not given in full) | > 4 mM (inactive) |
| Cn1nnc2cc(C(=O)NCc3ccco3)ccc21 | > 4 mM (inactive) |
| Cc1nn(C)c(N2CCOCC2)c1N | > 4 mM (inactive) |
| Nc1nc(=S)n2c(n1)oc1ccccc12 | > 4 mM (inactive) |
| Cc1n[nH]c(=S)n1-c1ccc(C(=O)O)cc1 | > 4 mM (inactive) |
| COc1ccccc1-c1cn[nH]c(=S)n1 | > 4 mM (inactive) |
| Nc1ncccc1OCc1ccccc1 | > 4 mM (inactive) |
| Cc1nn(C)c(C)c1C(=O)O | > 4 mM (inactive) |
| Cc1c(/C=N/O)cnn1C | > 4 mM (inactive) |
| NC(=O)CCn1ncc2ccccc21 | > 4 mM (inactive) |
| Cn1ccc(NC(=S)NC2CCCC2)n1 | > 4 mM (inactive) |
| NC[C@H]1O[C@H](O[C@H]2[C@H](O)[C@@H](O[C@H]3O[C@H](CO)[C@@H](O)[C@H](N)[C@H]3O)[C@H](N)C[C@@H]2N)[C@H](N)[C@@H](O)[C@@H]1O | > 4 mM (inactive) |
| C(=N\c1nccs1)/c1cccnc1 | > 4 mM (inactive) |
| CN(C)S(=O)(=O)NCc1ccc2c(c1)OCO2 | > 4 mM (inactive) |

| SMILES | Kd |
| --- | --- |
| O=C(Nc1ccon1)c1ccc(Cl)s1 | > 4 mM (inactive) |
| Nc1nc(-c2nc3ccccc3[nH]2)cs1 | > 4 mM (inactive) |
| COc1cc2ccc(=O)oc2c(OC)c1OC | > 4 mM (inactive) |
| Cc1ccc(/C=C/C(=O)O)cc1S(=O)(=O)NCCO | > 4 mM (inactive) |
| C/C(=N\NC(N)=S)C(=O)O | > 4 mM (inactive) |
| COc1ccc(NC(=O)N2CCCCC2)cc1 | > 4 mM (inactive) |
| COC(=O)c1c(C)cc(OC(=O)c2c(C)cc(O)c(C=O)c2O)c(C)c1O | > 4 mM (inactive) |
| O=C(c1ccccc1)N1CCN(c2ccccc2F)CC1 | > 4 mM (inactive) |
| CC(CCC(=O)O)[C@H]1CCC2C3CC[C@@H]4C[C@H](O)CC[C@]4(C)C3C[C@H](O)[C@@]21C (stereo not given in full) | > 4 mM (inactive) |
| NS(=O)(=O)c1ccc2c(c1)OCCO2 | > 4 mM (inactive) |
| CC(=O)Nc1sc(C)c(C)c1C(N)=O | > 4 mM (inactive) |
| O=C(Nc1nncs1)c1c(F)c(F)c(F)c(F)c1F | > 4 mM (inactive) |
| COc1ccc2[nH]cc(CN(C)C)c2c1 | > 4 mM (inactive) |
| CC(=O)O[C@@H]1C[C@@]2(C)[C@H](c3ccoc3)C[C@H]3O[C@]32[C@]2(C)C(=O)C(O)=C3C(C)(C)C(=O)C=C[C@]3(C)C12 (stereo not given in full) | > 4 mM (inactive) |
| Oc1cccc2[nH]ccc12 | > 4 mM (inactive) |
| Cn1nnc2cc(C(=O)NC3=NCCS3)ccc21 | > 4 mM (inactive) |
| CC(=O)NC(=S)Nc1cccc(C(=O)O)c1C | > 4 mM (inactive) |
| Cc1nnc(Nc2cccnc2)[nH]c1=O | > 4 mM (inactive) |
| Cc1ccc(CN2C3=NC(=O)CN3c3ccccc32)cc1 | > 4 mM (inactive) |
| CC(C)n1c(Nn2cnnc2)nc2ccccc21 | > 4 mM (inactive) |
| CN1CCC[C@H]1c1cccnc1 | > 4 mM (inactive) |
| O=C(CCc1ccc(O)cc1)c1c(O)cc(O)cc1O[C@@H]1O[C@H](CO)[C@@H](O)[C@H](O)[C@H]1O | > 4 mM (inactive) |
| CC(C)CC(=O)NC1CCSC1=O (stereo not given) | > 4 mM (inactive) |

| SMILES | Kd |
| --- | --- |
| FC(F)(F)c1nnc2ccc(N3CCOCC3)nn12 | > 4 mM (inactive) |
| Nc1cccc(NC(=O)c2cccs2)c1 | > 4 mM (inactive) |
| N#Cc1sc2nc3c(c(-c4cccnc4)c2c1N)CCC3 | > 4 mM (inactive) |
| CC(=O)O[C@H]1CC[C@@]2(C)C(=CC(=O)C3C4CCC(C(C)CCCC(C)C)[C@@]4(C)CCC32)C1 (stereo not given in full) | > 4 mM (inactive) |
| C#CCCCCCCCCCCCc1ccco1 | > 4 mM (inactive) |
| c1ccc(-c2csc(Nc3cccnc3)n2)nc1 | > 4 mM (inactive) |
| CCCNC(=O)CSc1ncccc1C(=O)O | > 4 mM (inactive) |
| Nc1c(F)c(F)nc(F)c1F | > 4 mM (inactive) |
| C[C@H]1C(=O)O[C@@H]2CCN3CC=C(COC(=O)[C@](C)(O)[C@]1(C)O)[C@H]23 | > 4 mM (inactive) |
| Nc1cc(=O)[nH]c(SCC(=O)NCc2ccccc2)n1 | > 4 mM (inactive) |
| CC1CCC2(OC1)OC1CC3C4CCC5C[C@@H](O)CCC5(C)C4=CCC3(C)C1[C@@H]2C (stereo not given in full) | > 4 mM (inactive) |
| Cc1nc2ccc(C(=O)O)cc2nc1C | > 4 mM (inactive) |
| O=C(c1nc2ccccc2s1)N1CCSCC1 | > 4 mM (inactive) |
| COC1=CC23CCCN2CCc2cc4c(cc2C3C1O)OCO4 (stereo not given) | > 4 mM (inactive) |
| CCOc1nc(C)ccc1-c1noc(-c2ccncc2)n1 | > 4 mM (inactive) |
| CC(=O)c1c(C)n([O-])c2ccccc2[n+]1=O | > 4 mM (inactive) |
| O=C1NCCCC1C(=O)N/N=C/c1ccccc1 (stereo not given) | > 4 mM (inactive) |
| Nc1ccc2c(c1)OCO2 | > 4 mM (inactive) |
| Cc1cc(C(=O)N2CCN(c3ccccn3)CC2)no1 | > 4 mM (inactive) |
| O=c1[nH]c(N2CCOCC2)nc2ccccc12 | > 4 mM (inactive) |
| CN1CCC(N(C)Cc2cccnc2)CC1 | > 4 mM (inactive) |
| CC(=O)Nc1ccn(Cc2c(F)cccc2Cl)n1 | > 4 mM (inactive) |
| CS(C)=C1C(=O)NC(=O)N(Cc2ccc(F)cc2)C1=O | > 4 mM (inactive) |

| SMILES | Kd |
| --- | --- |
| CC1CC[C@]2(NC1)O[C@H]1CC3C4CC[C@H]5C[C@@H](O)CC[C@]5(C)C4CC[C@]3(C)[C@H]1[C@@H]2C (stereo not given in full) | > 4 mM (inactive) |
| CC[C@@]1(O)C[C@H](O)c2c(cc3c(c2O)C(=O)c2c(O)ccc(O)c2C3=O)[C@H]1C(=O)OC | > 4 mM (inactive) |
| Cc1ccc(S(=O)(=O)CC(N)=O)cc1 | > 4 mM (inactive) |
| COC(=O)[C@@H]1OC(=O)C2OC23[C@@]1(C)CCC1[C@@]2(C)CCC(=O)C(C)(C)C2C[C@@H](OC(C)=O)[C@]13C (stereo not given in full) | > 4 mM (inactive) |
| Nc1nonc1-c1nc2ccccc2[nH]1 | > 4 mM (inactive) |
| O=S(=O)(N1CCOCC1)n1nnc2ccccc21 | > 4 mM (inactive) |
| O=C(Nc1ccc(F)cc1F)c1ccco1 | > 4 mM (inactive) |
| O=C1CNCc2[nH]c3ccccc3c2N1c1ccccc1 | > 4 mM (inactive) |
| N#Cc1cnn(-c2ccc(Cl)cc2)c1N | > 4 mM (inactive) |
| O=C(O)C1Cc2ccccc2N1 (stereo not given) | > 4 mM (inactive) |
| Cc1ccc(NC(=O)C2CCN(S(C)(=O)=O)CC2)cc1 | > 4 mM (inactive) |
| O=C(c1ccco1)N1C(=O)c2cccc3cccc1c23 | > 4 mM (inactive) |
| N#CCSc1nc2ccccc2c(=O)n1-c1ccccc1 | > 4 mM (inactive) |
| c1cc(CNc2ccc3c(c2)OCCO3)ccn1 | > 4 mM (inactive) |
| CCOC(=O)CSc1nnc(C)c(=O)[nH]1 | > 4 mM (inactive) |
| O=C(c1cc2ccccc2o1)c1nc2c(n1O)CCCCC2 | > 4 mM (inactive) |
| O=C(Nc1ccc2c(c1)OCCO2)c1ccncc1 | > 4 mM (inactive) |
| Cc1occc1C(=O)NCc1ccncc1 | > 4 mM (inactive) |
| Nc1cccnc1Oc1ccc(F)cc1F | > 4 mM (inactive) |
| Nc1c2c3c(sc2nc(=O)n1N)CCCC3 | > 4 mM (inactive) |
| CC(C)(O)CC[C@@H](O)[C@](C)(O)C1CC[C@@]2(O)C3=CC(=O)C4C[C@@H](O)[C@@H](O)C[C@]4(C)C3CC[C@]12C (stereo not given in full) | > 4 mM (inactive) |
| Cc1ccc(-c2nnn(CC(=O)O)n2)cc1 | > 4 mM (inactive) |
| Cc1ccccc1NC(=O)CC1NCCNC1=O (stereo not given) | > 4 mM (inactive) |
